We go through 29 compounds from patent US11746100B2 (GLOBAL BLOOD THERAPEUTICS, INC., priority 2020, dated 2023).

In the assay the target is T1, human ferroportin (Homo sapiens, UniProt Q9NP59).
T1 construct: luciferase reporter (read with the Nano-Glo Luciferase Assay System); expressed in transfected cells; host or cells: CHO cells, stably transfected, expression induced with doxycycline
T1 sequence (Q9NP59 1-571): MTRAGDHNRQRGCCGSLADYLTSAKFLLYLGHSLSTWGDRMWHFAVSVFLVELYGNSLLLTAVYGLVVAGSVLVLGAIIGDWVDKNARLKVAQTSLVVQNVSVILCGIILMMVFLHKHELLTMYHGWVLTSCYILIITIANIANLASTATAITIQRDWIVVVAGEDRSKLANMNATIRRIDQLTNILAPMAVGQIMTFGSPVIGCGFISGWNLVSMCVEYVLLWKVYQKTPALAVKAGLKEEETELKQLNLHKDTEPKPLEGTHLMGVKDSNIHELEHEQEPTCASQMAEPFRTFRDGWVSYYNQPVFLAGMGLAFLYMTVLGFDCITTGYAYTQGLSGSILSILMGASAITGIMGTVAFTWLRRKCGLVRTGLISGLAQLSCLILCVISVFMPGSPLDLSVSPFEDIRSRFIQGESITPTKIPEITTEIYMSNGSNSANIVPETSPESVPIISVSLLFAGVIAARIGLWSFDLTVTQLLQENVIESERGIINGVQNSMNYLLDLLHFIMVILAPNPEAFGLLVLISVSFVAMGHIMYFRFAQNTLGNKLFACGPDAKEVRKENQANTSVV
The experiment in a line: Biological in-vitro ferroportin internalization assay (luciferase reporter). In kind it is cell-based. The following applies: average pEC50; stably-transfected CHO cell line expressing human ferroportin tagged to a luciferase reporter; 6 h incubation with test compound. In outline: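 Read-out is Nano-Glo luciferase signal after 6 h compound exposure, with average pEC50 derived. Cells are a stable CHO line carrying luciferase-tagged human ferroportin, pre-loaded 24 h with ferric ammonium citrate and doxycycline-induced for 24 h.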

The pEC50 is the EC50 on a negative log10 scale, so that one unit is a factor of ten. For `COc1ccnc(-c2nc3c(c(N(C)CC(=O)N(C)C(C)(C)C)n2)CCC3)c1` [Compound 156, N-tert-butyl-2-{[2-(4-methoxypyridin-2-yl)-5H,6H,7H-cyclopenta[d]pyrimidin-4-yl](methyl)amino}-N-methylacetamide], the pEC50 came out at 7.9.
With `COc1ccnc(-c2nc3c(c(N(C)CC(=O)N(C)C)n2)CCC3)c1` [Compound 157, 2-{[2-(4-methoxypyridin-2-yl)-5H,6H,7H-cyclopenta[d]pyrimidin-4-yl](methyl)amino}-N,N-dimethylacetamide] the figure was 7.3; with `CN(CC(=O)NC(C)(C)C)c1nc(-c2cc(C#N)ccn2)nc2c1CCC2` [Compound 158, N-tert-butyl-2-{[2-(4-cyanopyridin-2-yl)-5H,6H,7H-cyclopenta[d]pyrimidin-4-yl](methyl)amino}acetamide], 6.2; with `CN(CC(=O)NC(C)(C)C)c1nc(-c2cc(OCC3CC3)ccn2)nc2c1CCC2` [Compound 159, N-tert-butyl-2-({2-[4-(cyclopropylmethoxy)pyridin-2-yl]-5H,6H,7H-cyclopenta[d]pyrimidin-4-yl}(methyl)amino)acetamide], 8.0.
With `CN(CC(=O)NC(C)(C)C)c1nc(-c2ccn(C)n2)nc2c1CCC2` [Compound 160, N-tert-butyl-2-{methyl[2-(1-methyl-1H-pyrazol-3-yl)-5H,6H,7H-cyclopenta[d]pyrimidin-4-yl]amino}acetamide] the figure was 5.2; with `CN(CC(=O)NC1(C)CCCC1)c1nc(-c2cn(C)cn2)nc2c1CCC2` [Compound 161, 2-{methyl[2-(1-methyl-1H-imidazol-4-yl)-5H,6H,7H-cyclopenta[d]pyrimidin-4-yl]amino}-N-(1-methylcyclopentyl)acetamide], 7.4.
Take `CN(CC(=O)NC(C)(C)C)c1nc(-c2nccn2C)nc2c1CCC2` [Compound 162, N-tert-butyl-2-{methyl[2-(1-methyl-1H-imidazol-2-yl)-5H,6H,7H-cyclopenta[d]pyrimidin-4-yl]amino}acetamide]: the pEC50 came out at 5.7.
For `CN(CC(=O)NC(C)(C)C)c1nc(-c2cocn2)nc2c1CCC2` [Compound 163, N-tert-butyl-2-{methyl[2-(1,3-oxazol-4-yl)-5H,6H,7H-cyclopenta[d]pyrimidin-4-yl]amino}acetamide] the value was 5.4.
For `CN(CC(=O)NC(C)(C)C)c1nc(-c2cc3ccccc3cn2)nc2c1CCC2` [Compound 165, N-tert-butyl-2-{[2-(isoquinolin-3-yl)-5H,6H,7H-cyclopenta[d]pyrimidin-4-yl](methyl)amino}acetamide] the value was 7.4; for `CN(CC(=O)NC(C)(C)C)c1nc(-c2cn3ccccc3n2)nc2c1CCC2` [Compound 166, N-tert-butyl-2-[(2-{imidazo[1,2-a]pyridin-2-yl}-5H,6H,7H-cyclopenta[d]pyrimidin-4-yl)(methyl)amino]acetamide], 6.7.
With `CN(CC(=O)Nc1cccc(F)c1)c1nc(-c2cc(OCCO)ccn2)nc2c1CCC2` [Compound 167, N-(3-fluorophenyl)-2-({2-[4-(2-hydroxyethoxy)pyridin-2-yl]-5H,6H,7H-cyclopenta[d]pyrimidin-4-yl}(methyl)amino)acetamide] the figure was 7.9; with `COc1ccnc(-c2nc3c(c(N(C)CC(=O)N[C@H]4CCCC[C@H]4O)n2)CCC3)c1` [Compound 169, N-[(1S,2R)-2-hydroxycyclohexyl]-2-{[2-(4-methoxypyridin-2-yl)-5H,6H,7H-cyclopenta[d]pyrimidin-4-yl](methyl)amino}acetamide], 7.3; with `COc1ccnc(-c2nc3c(c(N(C)CC(=O)N[C@H]4CCC[C@H]4O)n2)CCC3)c1` [Compound 171, N-[(1S,2R)-2-hydroxycyclopentyl]-2-{[2-(4-methoxypyridin-2-yl)-5H,6H,7H-cyclopenta[d]pyrimidin-4-yl](methyl)amino}acetamide], 7.2.
With `CN(CC(=O)NC(C)(C)C)c1nc(-c2cc(OCC(C)(C)O)ccn2)nc2c1CCC2` [Compound 174, N-tert-butyl-2-({2-[4-(2-hydroxy-2-methylpropoxy)pyridin-2-yl]-5H,6H,7H-cyclopenta[d]pyrimidin-4-yl}(methyl)amino)acetamide], the pEC50 is 8.2.
For `CN(CC(=O)NC(C)(C)C)c1nc(-c2cc3[nH]ncc3cn2)nc2c1CCC2` [Compound 176, N-tert-butyl-2-[methyl(2-{1H-pyrazolo[4,3-c]pyridin-6-yl}-5H,6H,7H-cyclopenta[d]pyrimidin-4-yl)amino]acetamide] the value was 7.8; for `CN(CC(=O)Nc1cnn(C)c1)c1nc(-c2cc(OCC(F)(F)F)ccn2)nc2c1CCC2` [Compound 177, 2-[methyl({2-[4-(2,2,2-trifluoroethoxy)pyridin-2-yl]-5H,6H,7H-cyclopenta[d]pyrimidin-4-yl})amino]-N-(1-methyl-1H-pyrazol-4-yl)acetamide], 6.9; for `COc1ccnc(-c2nc3c(c(N(C)CC(=O)Nc4cncnc4)n2)CCC3)c1` [Compound 178], 7.2.
For `CN(CC(=O)NC1(C)CCCC1)c1nc(-c2cc(OCCO)ccn2)nc2c1CCC2` [Compound 179, 2-({2-[4-(2-hydroxyethoxy)pyridin-2-yl]-5H,6H,7H-cyclopenta[d]pyrimidin-4-yl}(methyl)amino)-N-(1-methylcyclopentyl)acetamide] the value was 7.7.
For `COc1cccnc1-c1nc2c(c(N(C)CC(=O)NC(C)(C)C)n1)CCC2` [Compound 180, N-tert-butyl-2-{[2-(3-methoxypyridin-2-yl)-5H,6H,7H-cyclopenta[d]pyrimidin-4-yl](methyl)amino}acetamide] the value was 5.2; for `CN(CC(=O)NC(C)(C)C)c1nc(-c2ncccc2O)nc2c1CCC2` [Compound 181, N-tert-butyl-2-{[2-(3-hydroxypyridin-2-yl)-5H,6H,7H-cyclopenta[d]pyrimidin-4-yl](methyl)amino}acetamide], 6.5.
Regarding `CN(CC(=O)NC(C)(C)C)c1nc(-c2c[nH]cn2)nc2c1CCC2` [Compound 182, N-tert-butyl-2-{[2-(1H-imidazol-4-yl)-5H,6H,7H-cyclopenta[d]pyrimidin-4-yl](methyl)amino}acetamide], the pEC50 came to 7.6.
For `C[C@H](C(=O)NC(C)(C)C)N(C)c1nc(-c2cc3cn[nH]c3cn2)nc2c1CCC2` [Compound 183, (2R)—N-tert-butyl-2-[methyl(2-{1H-pyrazolo[3,4-c]pyridin-5-yl}-5H,6H,7H-cyclopenta[d]pyrimidin-4-yl)amino]propanamide] the value was 8; for `CN(CC(=O)NC1(C)CCCC1)c1nc(-c2cc3cn[nH]c3cn2)nc2c1CCC2` [Compound 184, 2-[methyl(2-{1H-pyrazolo[3,4-c]pyridin-5-yl}-5H,6H,7H-cyclopenta[d]pyrimidin-4-yl)amino]-N-(1-methylcyclopentyl)acetamide], 7.7; for `CN(CC(=O)NC1(C)CCOC1)c1nc(-c2cc3cn[nH]c3cn2)nc2c1CCC2` (centres unmarked) [Compound 185, 2-[methyl(2-{1H-pyrazolo[3,4-c]pyridin-5-yl}-5H,6H,7H-cyclopenta[d]pyrimidin-4-yl)amino]-N-(3-methyloxolan-3-yl)acetamide], 7.2.
With `COc1ncc(NC(=O)CN(C)c2nc(-c3cn(C)cn3)nc3c2CCC3)cn1` [Compound 186, N-(2-methoxypyrimidin-5-yl)-2-{methyl[2-(1-methyl-1H-imidazol-4-yl)-5H,6H,7H-cyclopenta[d]pyrimidin-4-yl]amino}acetamide] the figure was 7; with `COc1ccc(NC(=O)CN(C)c2nc(-c3cc(OCCO)ccn3)nc3c2CCC3)cn1` [Compound 187, 2-({2-[4-(2-hydroxyethoxy)pyridin-2-yl]-5H,6H,7H-cyclopenta[d]pyrimidin-4-yl}(methyl)amino)-N-(6-methoxypyridin-3-yl)acetamide], 7.9; with `COc1ccc(N2CCCN(c3nc(-c4ccccn4)nc4c3CCC4)CC2=O)cc1` [Compound 188, 1-(4-methoxyphenyl)-4-[2-(pyridin-2-yl)-5H,6H,7H-cyclopenta[d]pyrimidin-4-yl]-1,4-diazepan-2-one], 6.7.
In turn, `COc1ccnc(-c2nc3c(c(N(C)CC(=O)Nc4ccc(F)cc4)n2)CCC3)c1` [Compound 189, N-(4-fluorophenyl)-2-{[2-(4-methoxypyridin-2-yl)-5H,6H,7H-cyclopenta[d]pyrimidin-4-yl](methyl)amino}acetamide] had a pEC50 of 7.7.
For `COc1ccc(NC(=O)CN(C)c2nc(-c3cn(C)cn3)nc3c2CCC3)nc1` [Compound 190, N-(5-methoxypyridin-2-yl)-2-{methyl[2-(1-methyl-1H-imidazol-4-yl)-5H,6H,7H-cyclopenta[d]pyrimidin-4-yl]amino}acetamide] the value was 7.8.
